From publication PMC12444472, “BCI inhibits MKP3 by targeting the kinase-binding domain and disrupting ERK2 interaction” (The Journal of Biological Chemistry, 2025)

Key:
Experiment in all cases: NMR titration (1H-15N HSQC)
Format in all cases: binding
MKP1^KBD = target: T1, MKP1^KBD (Homo sapiens, UniProt P28562); settings: molar ratio 1:15
T1 construct: MKP1(1–141) (MKP1^KBD); made in house; host or cells: Escherichia coli BL21(DE3)
T1 sequence (P28562 1-141): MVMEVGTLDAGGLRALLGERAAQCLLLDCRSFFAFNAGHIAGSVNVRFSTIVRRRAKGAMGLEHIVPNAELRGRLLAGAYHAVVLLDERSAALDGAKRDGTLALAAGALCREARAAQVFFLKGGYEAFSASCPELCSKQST
Description: (§1) NMR data were collected at 298 K on a Bruker AVANCE NEO 800 MHz spectrometer (Bruker BioSpin) equipped with a ^1H&^19F/^13C/^15N TCI cryogenic probe. Backbone resonances of MKP3^1–154 were assigned using 2D/3D experiments, including 2D ^1H–^15N HSQC and 3D ^1H/^13C/^15N CBCA(CO)NH, HNCACB, HNCO, and HN(CA)CO, performed with uniformly ^13C/^15N labeled protein at a final concentration of 0.39 mM in buffer containing 20 mM imidazole (pH 6.0), 100 mM NaCl, 5 mM DTT, 0.5 mM EDTA, and 5% (v/v) D2O. The buffer used for backbone resonance assignment was similar to that used for the previously reported NMR structure ([15]). NMR titration experiments were conducted using ^15N-labeled MKP3^1–154, MKP3^14–152, MKP3^204–350, MKP1^1–141, MKP2^5–159, MKPX^1–140, MKP4^1–143, and MKP5^139–287. 2D ^1H–^15N HSQC spectra of ^15N-labeled MKPs^KBD (0.1 mM) were acquired in the absence and presence of BCI (50 mM stock in DMSO-d6) in buffer containing 50 mM KH2PO4–K2HPO4 (pH 7.2), 100 mM KCl, 1 mM Tris(2-carboxyethyl)phosphine hydrochloride, 1 mM EDTA, and 5% (v/v) D2O. Control experiments, in which only the corresponding volume of DMSO-d6 was added to ^15N-labeled proteins, were performed to exclude possible effects of DMSO on the interactions. For ^15N T1 measurements, the relaxation delay times were set to 20 (×2), 100, 200 (×2), 300, 400, 600 (×2), 800, 1200, and 1600 ms. For ^15N T2 measurements, the delay times were 7.84, 15.68 (×2), 23.52, 31.36 (×2), 39.2, 47.04 (×2), 54.88, 62.72, 78.4, 94.08, and 109.76 ms. The relaxation rates R1 (1/T1) and R2 (1/T2) for each residue were determined by fitting the peak intensities from spectra acquired at the various delay times to a single-exponential decay function: I/I0 = exp(-R1,2·t), where I0 is the intensity at t = 0, and I is the intensity at a delay time t. Repeated measurements were used to estimate the uncertainties of the R1 and R2 values via Monte Carlo analysis. Heteronuclear steady-state ^1H–^15N NOE experiments were acquired in an interleaved mode, with 5 s of ^1H saturation for NOE build-up and 5 s of relaxation delay for the reference spectra. Repeated experiments were performed to estimate uncertainties, and the propagated error for each NOE value was calculated using the following equation: σNOE = NOE × ((σsat/Isat)^2+(σunsat/Iunsat)^2)^1/2, where σsat and σunsat are the SDs of the saturated and unsaturated spectra, respectively, and Isat and Iunsat are the corresponding signal intensities. NMR data were processed using TopSpin 4.1.1 (Bruker BioSpin) or NMRPipe ([54]) and analyzed with POKY ([55]).

MKP2^KBD = target: T2, MKP2^KBD (Homo sapiens, UniProt Q13115); settings: molar ratio to BCI 1:13
T2 construct: MKP2(5–159) (MKP2^KBD); made in house; host or cells: Escherichia coli BL21(DE3)
T2 sequence (Q13115 5-159): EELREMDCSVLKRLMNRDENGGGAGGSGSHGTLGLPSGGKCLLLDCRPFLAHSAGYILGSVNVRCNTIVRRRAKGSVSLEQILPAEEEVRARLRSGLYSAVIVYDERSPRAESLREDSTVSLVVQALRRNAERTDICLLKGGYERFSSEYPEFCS
Description: as §1

MKP3^KBD = target: T3, MKP3^KBD (Homo sapiens, UniProt Q16828); settings: 15N-labeled MKP3^KBD titrated with BCI, analysed at 1:4 M ratio
T3 construct: MKP3(1–154) (MKP3^KBD); made in house; host or cells: Escherichia coli BL21(DE3)
T3 sequence (Q16828 1-154): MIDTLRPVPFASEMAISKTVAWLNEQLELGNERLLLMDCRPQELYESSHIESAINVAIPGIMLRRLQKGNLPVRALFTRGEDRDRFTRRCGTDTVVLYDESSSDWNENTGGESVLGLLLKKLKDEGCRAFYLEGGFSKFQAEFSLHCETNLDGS
Description: as §1

MKP4^KBD = target: T4, MKP4^KBD (Homo sapiens, UniProt Q99956); settings: molar ratio 1:15
T4 construct: MKP2^5–159, MKPX^1–140, MKP4^1–143, and MKP5^139–287; made in house; host or cells: Escherichia coli BL21(DE3)
T4 sequence (Q99956 1-143): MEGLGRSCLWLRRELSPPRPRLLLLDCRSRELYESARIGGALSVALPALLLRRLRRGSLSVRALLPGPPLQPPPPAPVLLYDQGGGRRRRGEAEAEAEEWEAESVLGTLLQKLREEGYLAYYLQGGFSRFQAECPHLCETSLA
Description: as §1

MKP5^KBD = target: T5, MKP5^KBD (Homo sapiens, UniProt Q9Y6W6); settings: molar ratio 1:5
T5 construct: MKP5(139–287) (MKP5^KBD); made in house; host or cells: Escherichia coli BL21(DE3)
T5 sequence (Q9Y6W6 139-287): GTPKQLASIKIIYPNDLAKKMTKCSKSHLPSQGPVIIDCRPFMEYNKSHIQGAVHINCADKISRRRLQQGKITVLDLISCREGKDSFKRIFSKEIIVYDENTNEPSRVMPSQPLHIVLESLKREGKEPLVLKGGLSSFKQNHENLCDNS
Description: as §1

MKPX^KBD = target: T6, MKPX^KBD (Homo sapiens, UniProt Q16829); settings: molar ratio 1:2
T6 construct: MKPX(1–140) (MKPX^KBD); made in house; host or cells: Escherichia coli BL21(DE3)
T6 sequence (Q16829 1-140 isoform Q16829-2): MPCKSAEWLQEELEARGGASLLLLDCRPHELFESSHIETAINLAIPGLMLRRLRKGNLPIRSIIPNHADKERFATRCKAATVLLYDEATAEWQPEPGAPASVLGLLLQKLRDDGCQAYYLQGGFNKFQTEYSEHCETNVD
Description: as §1

O=C1/C(=C/c2ccccc2)C(NC2CCCCC2)c2ccccc21 (stereo not drawn) [BCI, (E)-2-benzylidene-3-(cyclohexylamino)-2,3-dihydro-1H-inden-1-one]
perturbation of NMR spectrum (MKP1^KBD): No significant NMR peak perturbation | perturbation of NMR spectrum (MKP2^KBD): Peak broadening was detected | perturbation of NMR spectrum (MKP3^KBD): significant peak broadening | perturbation of NMR spectrum (MKP4^KBD): No significant NMR peak perturbation | perturbation of NMR spectrum (MKP5^KBD): Significant peak broadening | perturbation of NMR spectrum (MKPX^KBD): Significant peak broadening
